Experimental data published in US11013784B2 (priority 2015, dated 2021).

Tested on: SKOV3-Luc ovarian tumor cells
Format: cell-based, human

**Q.** `N.N.[Cl][Pt][Cl]` [cisplatin] was tested. Which IC50 did it give?
**A.** 230 µM
